Laboratory results reported in patent US20140099256A1, “RADIOACTIVE LUMINESCENT NANOPARTICLE COMPOSITIONS” (The Board of Regents of the University of Texas System, priority 2012, published 2014).

Experiments:
Format in all cases: in vivo, BALB/c mice
[1] = Biodistribution of Cu(II)-GSSG complex and GS-CuNPs after tail-vein injection; conditions: 24 h after tail-vein injection, background copper deducted
Protocol: (§1) FIGS. 2A to 2E show (A) Ex vivo fluorescent images of urine of control mice or mice injected with luminescent GS-CuNPs (λex=510 nm, λem=790 nm); (B) Copper contents (n=6) in the urine at different times post injection (p.i.); (C) Biodistribution of Cu(II)-GSSG complex and luminescent GS-CuNPs in BALB/c mice (n=6) 24 h after the tail-vein injection; (D) Liver-tourine ratios of Cu(II)-GSSG complex and GS-CuNPs at 24 h p.i; (E) Pharmacokinetics (n=3) of the renal clearable Cu(II)-GSSG complex and luminescent GS-CuNPs in 24 h p.i.
(§2) The detailed biodistribution studies of mice injected with GS-CuNPs and Cu(II)-GSSG complexes were consistent with their renal clearance profiles (FIG. 2C). In view of the background of copper, the average copper contents in the various organs/tissues and urine from three BALB/c mice have been deducted. […] However, compared to free Cu ions that often bind to caeruloplasmin and hephaestin and mainly accumulate in the liver, both GS-CuNPs and Cu(II)-GSSG complexes had much lower accumulation in RES, which was because GSH minimized the serum protein absorption and render them the efficient renal clearance. […] As a result, liver-to-urine ratio (−0.16) of CuNPs is more than 4 times lower than that of Cu(II)-GSSG complex (FIG. 2D).

[2] = Blood pharmacokinetics of Cu(II)-GSSG complex and GS-CuNPs; conditions: 24 h p.i.
Protocol: as §1, §2

[3] = Renal clearance kinetics (copper content in urine) of GS-CuNPs and Cu(II)-GSSG complex
Protocol: as §1
Although “being small” is generally seen as an efficient approach to boost the clearance of biomaterials from the body, the avidity between materials and serum proteins also plays an important role in the excretion. Seemingly a dilemma, it is hard to know which factors in the renal excretion of GS-CuNPs and Cu(II)-GSSG complex are reliably important. As such, the renal clearance kinetics and biodistribution of GS-CuNPs and Cu(II)-GSSG complex were evaluated in BALB/c mice (FIGS. 2A and 2B). For GS-CuNPs, 78.5±3.5% of injected copper was excreted from the body into the urine after 24 h p.i., and over 60% of copper was actually eliminated from the body in the first 2 h p.i (FIG. 2B).

- copper found in the liver [1]: 29.6±8.1 % ID
- copper found in the spleen [1]: ~0.1 % ID
- distribution half-life t½α [2]: 0.228 ± 0.0167 h
- terminal elimination half-life (t½β) [2]: 4.93 ± 0.94 h
- additional increase in urine excretion of copper metal ([3]; after 2 h): −18%
- copper found in the urine ([3]; at 2 h p.i.): 22 % ID
Substance: Cu(II)-GSSG complex
